Assay results from US20210269447A1, “NOVEL AMINO-IMIDAZOPYRIMIDINE DERIVATIVES AS JANUS KINASE INHIBITORS AND PHARMACEUTICAL USE THEREOF” (LEO Pharma A/S, priority 2018, published 2021).

Tests used:
[1] = target: T1, Human baculovirus-expressed Janus kinase (JAK) 1 (Homo sapiens, UniProt P23458); assay: JAK1 kinase assay (HTRF); assay type: biochemical; conditions: catalytic domain, ATP at Km (7 μM), 40 min
T1 construct: JAK1 (aa 850-1154) and TYK2 (aa 871-1187) are expressed with an N-terminally fused GST-tag; GST (N); purchased Carna Biosciences, Inc 08-144; host or cells: baculovirus expression system
Protocol: (§1) Human baculovirus-expressed Janus kinase (JAK) 1, 2, 3 and tyrosin kinase (TYK) 2 were purchased from Carna Biosciences, Inc (#08-144, -045, -046, -147 resp.). All four purified enzymes contain only the catalytic domain. JAK1 (aa 850-1154) and TYK2 (aa 871-1187) are expressed with an N-terminally fused GST-tag, and JAK2 and JAK3 with an N-terminally fused His-tag. Inhibition of phosphorylation of a synthetic peptide was measured in an HTRF-based assay (CisBio #62TKOPEC). First, 75 nL of test compound solution (100% DMSO) was added to a white shallow 384-well plate (NUNC #264706) using a Labcyte ECHO 550 liquid handler. Thereafter, 1 μL of compound dilution buffer (50 mM HEPES, 0.05% bovine serum albumin) and 2 μL of TK solution (TK substrate-biotin in kinase buffer [1× enzymatic buffer from HTRFKinEASE TK kit, 1 mM DTT]) was added. Then, 5 μL kinase-ATP mix (prepared in kinase buffer) was added to the wells and the plates were incubated at RT for 20 (JAK2, 3 and TYK2) to 40 (JAK1) min. For all four kinases a concentration of ATP that corresponded to the Km for ATP was used. The final concentrations of buffers, substrate, kinase and ATP were: JAK1: 50 mM Hepes buffer pH 7.0, 0.01% BSA, 10 mM MgCl2, 1 mM DTT, 7 μM ATP, 50 nM SEB, 1 μM TK Substrate-Biotin and 5 ng JAK1; JAK2: 50 mM Hepes buffer pH 7.0, 0.01% BSA, 5 mM MgCl2, 1 mM DTT, 4 μM ATP, 1 μM TK Substrate-Biotin and 0.1 ng JAK2; JAK3: 50 mM Hepes buffer pH 7.0, 0.01% BSA, 5 mM MgCl2, 1 mM DTT, 2 μM ATP, 1 μM TK Substrate-Biotin and 0.3 ng JAK3; TYK2: 50 mM Hepes buffer pH 7.0, 0.01% BSA, 5 mM MgCl2, 1 mM DTT, 13 μM ATP, 50 nM SEB, 1 μM TK Substrate-Biotin and 0.8 ng TYK2. […] A PerkinElmer Envision reader was used to quantify the HTRF signal using the following filters; 320 nm excitation filter, 665 nm emission filter and a 615 nm 2nd emission filter. A ratio ((665/615)×104) was calculated for each well.

[2] = target: T2, Human baculovirus-expressed tyrosin kinase (TYK) 2 (Homo sapiens, UniProt P29597); assay: TYK2 kinase assay (HTRF); assay type: biochemical; conditions: catalytic domain, ATP at Km (13 μM), 20 min
T2 construct: JAK1 (aa 850-1154) and TYK2 (aa 871-1187) are expressed with an N-terminally fused GST-tag; GST (N); purchased Carna Biosciences, Inc 08-147; host or cells: baculovirus expression system
T2 sequence (P29597 871-1187): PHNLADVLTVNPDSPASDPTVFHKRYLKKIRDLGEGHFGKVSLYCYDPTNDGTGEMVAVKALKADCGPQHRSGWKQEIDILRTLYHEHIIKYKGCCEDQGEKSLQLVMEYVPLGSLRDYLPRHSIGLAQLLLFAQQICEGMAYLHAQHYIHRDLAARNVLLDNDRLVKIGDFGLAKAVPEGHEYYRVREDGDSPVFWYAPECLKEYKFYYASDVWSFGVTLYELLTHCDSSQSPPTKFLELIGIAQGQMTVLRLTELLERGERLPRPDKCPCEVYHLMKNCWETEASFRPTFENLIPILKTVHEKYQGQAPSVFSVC
Protocol: as §1

[3] = target: T3, Human baculovirus-expressed Janus kinase (JAK) 2 (Homo sapiens, UniProt O60674); assay: JAK2 kinase assay (HTRF); assay type: biochemical; conditions: catalytic domain, ATP at Km (4 μM), 20 min
T3 construct: All four purified enzymes contain only the catalytic domain; His-tag (N); purchased Carna Biosciences, Inc 08-045; host or cells: baculovirus expression system
Protocol: as §1

[4] = target: T4, Human baculovirus-expressed Janus kinase (JAK) 3 (Homo sapiens, UniProt P52333); assay: JAK3 kinase assay (HTRF); assay type: biochemical; conditions: catalytic domain, ATP at Km (2 μM), 20 min
T4 construct: All four purified enzymes contain only the catalytic domain; His-tag (N); purchased Carna Biosciences, Inc 08-046; host or cells: baculovirus expression system
Protocol: as §1

STAT5 irfi-bla TF1 cells = assay: STAT5 Assay; assay type: cell-based; conditions: TF-1; stimulated with recombinant human erythropoietin (EPO) 10 ng/mL; beta-lactamase reporter
Protocol: Twenty-five μL of a STAT5 irfi-bla TF1 (Invitrogen #K1219) cell suspension was seeded with a density of about 10,000 cells/well in 384-well Black View-plates (PerkinElmer #6007460) with clear bottom in assay medium (Opti-MEM (Invitrogen #11058-021)+0.5% heat inactivated fetal bovine Serum (Invitrogen #10082-147)+1% non-essential amino acids (Invitrogen #11140-050)+1% sodium pyruvate (Invitrogen #11360-070)+1% penicillin/streptomycin (Invitrogen #15140-122)). The cell plates were incubated overnight in a humidified 37° C. air/CO2 (95%/5%) incubator. The following day, 125 nL of solutions of test compounds and reference compounds were transferred to cell plates using the Labcyte Echo 550 liquid handler. The plates were then incubated for 1 h in a humidified 37° C. air/CO2 (95%/5%) incubator. Hereafter recombinant human erythropoietin (EPO) (Invitrogen #PHC9634) was added to the plates also using the Labcyte Echo 550 to a final concentration of 10 ng/mL. The cells were then incubated for 4½-5 h in a humidified 37° C. air/CO2 (95%/5%) incubator. 8 μL of LiveBLAzer substrate mixture (Invitrogen #K1095) were then added to the assay plates, which were then incubated overnight at RT. Fluorescence was then measured: Excitation: 405 nm; Emission: 460 nm (green channel), Emission: 535 nm (blue channel). Background was subtracted in both emission channels and the ratio 460/535 nm was calculated for each well.

STAT6 bla-RA1 cells = assay: STAT6 Assay; assay type: cell-based; conditions: stimulated with recombinant human interleukin 4 10 ng/mL; CD40 ligand; beta-lactamase reporter
Protocol: Twenty-five μL of a STAT6 bla-RA1 (Invitrogen #K1243) cell suspension was seeded with a density of 30-40,000 cells/well in 384-well Black View-plates (PerkinElmer #6007460) with clear bottom in assay medium (Opti-MEM (Invitrogen #11058-021)+0.5% heat inactivated fetal bovine Serum (Invitrogen #10082-147)+1% non-essential amino acids (Invitrogen #11140-050)+1% sodium pyruvate (Invitrogen #11360-070)+1% penicillin/streptomycin (Invitrogen #15140-122)); containing 550 ng/mL of CD40 ligand (Invitrogen #PHP0025). The cell plates were incubated overnight in a humidified 37° C. air/CO2 (95%/5%) incubator. The following day, 125 nL of solutions of test compounds and reference compounds were transferred to cell plates using the Labcyte Echo 550 liquid handler. The plates were then incubated for 1 h in a humidified 37° C. air/CO2 (95%/5%) incubator. Hereafter recombinant human interleukin 4 (Invitrogen #PHC0045) were added to the plates also using the Labcyte Echo 550 to a final concentration of 10 ng/mL. The cells were then incubated for 4½-5 h in a humidified 37° C. air/CO2 (95/b/5%) incubator. 8 μL of LiveBLAzer substrate mixture (Invitrogen #K1095) were then added to the assay plates, which were incubated overnight at RT. Fluorescence was then measured: Excitation: 405 nm; Emission: 460 nm (green channel), Emission: 535 nm (blue channel). Background was subtracted in both emission channels and the ratio 460/535 nm was calculated for each well.

T3 sequence (O60674 849-1124 limits assumed): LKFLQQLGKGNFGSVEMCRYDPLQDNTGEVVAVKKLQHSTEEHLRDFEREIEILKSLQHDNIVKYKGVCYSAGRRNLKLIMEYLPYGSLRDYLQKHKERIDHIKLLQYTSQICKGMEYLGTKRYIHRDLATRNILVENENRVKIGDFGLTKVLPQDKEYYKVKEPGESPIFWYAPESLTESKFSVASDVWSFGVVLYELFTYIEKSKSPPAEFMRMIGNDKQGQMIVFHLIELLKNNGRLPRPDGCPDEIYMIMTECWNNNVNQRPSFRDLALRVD
T1 sequence (P23458 850-1154): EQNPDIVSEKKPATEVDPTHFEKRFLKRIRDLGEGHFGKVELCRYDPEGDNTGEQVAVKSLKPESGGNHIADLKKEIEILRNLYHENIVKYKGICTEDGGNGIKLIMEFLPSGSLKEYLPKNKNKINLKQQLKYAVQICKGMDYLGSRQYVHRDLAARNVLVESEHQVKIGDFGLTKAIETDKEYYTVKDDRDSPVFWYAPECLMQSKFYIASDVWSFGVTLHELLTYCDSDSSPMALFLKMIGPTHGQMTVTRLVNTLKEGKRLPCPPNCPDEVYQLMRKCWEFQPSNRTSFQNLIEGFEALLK
T4 sequence (P52333 822-1111 limits assumed): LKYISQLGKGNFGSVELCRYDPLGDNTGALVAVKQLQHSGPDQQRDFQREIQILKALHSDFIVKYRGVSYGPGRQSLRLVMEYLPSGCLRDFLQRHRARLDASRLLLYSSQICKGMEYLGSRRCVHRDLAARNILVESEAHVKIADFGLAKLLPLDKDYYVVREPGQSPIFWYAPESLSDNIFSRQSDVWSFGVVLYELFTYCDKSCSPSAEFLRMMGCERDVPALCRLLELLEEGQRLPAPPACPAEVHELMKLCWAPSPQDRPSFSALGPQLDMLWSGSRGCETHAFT

Row | EC50 [1] [nM] | EC50 [2] [nM] | EC50 [3] [nM] | EC50 [4] [nM] | EC50 (STAT5 irfi-bla TF1 cells) [nM] | EC50 (STAT6 bla-RA1 cells) [nM] | Compound
1 | 9 | 47 | 274 | 798 | 12800 | 213 | CNc1ncc2nc(C(C)O)n([C@H]3CC[C@H](CC#N)CC3)c2n1 (mixture of isomers) [Compound 2, 2-[trans-4-[8-(1-Hydroxyethyl)-2-(methylamino)purin-9-yl]cyclohexyl]acetonitrile]
2 | 5 | 19 | 157 | 602 | 5190 | 146 | CNc1ncc2nc([C@@H](C)O)n([C@H]3CC[C@H](CC#N)CC3)c2n1 [Compound 1, 2-[trans-4-[8-[(1R)-1-Hydroxyethyl]-2-(methylamino)purin-9-yl]cyclohexyl]acetonitrile]
3 | 3 | 13 | 129 | 510 | 4870 | 142 | [2H]C([2H])([2H])Nc1ncc2nc([C@@H](C)O)n([C@H]3CC[C@H](CC#N)CC3)c2n1 [Compound 3, 2-[trans-4-[8-[(1R)-1-Hydroxyethyl]-2-(trideuteriomethylamino)purin-9-yl]cyclohexyl]acetonitrile]
